How the values were obtained:
[1] = molecular target: T1, SsbA (SaSsbA), single-stranded DNA-binding protein (Staphylococcus aureus, UniProt A0A0D1JHQ1, R18A); assay: intrinsic fluorescence quenching titration
T1 construct: gene ssb; recombinant His-tagged SaSsbA R18A (pET21b)
T1 sequence (A0A0D1JHQ1 1-167 R18A): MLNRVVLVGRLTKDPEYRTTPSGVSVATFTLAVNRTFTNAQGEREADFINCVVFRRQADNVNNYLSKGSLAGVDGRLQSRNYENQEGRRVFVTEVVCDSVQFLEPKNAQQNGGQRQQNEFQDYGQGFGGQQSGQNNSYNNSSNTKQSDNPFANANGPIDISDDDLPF

[2] = molecular target: T2, SsbA (SaSsbA), single-stranded DNA-binding protein (Staphylococcus aureus, UniProt A0A0D1JHQ1); assay: crystal structure ([…] Å) and intrinsic fluorescence quenching titration
T2 construct: gene ssb; recombinant His-tagged SaSsbA (167 aa, pET21b); aa 105–167 not observed in the crystal structure

## O=c1[nH]cc(F)c(=O)[nH]1 [5-FU, 5-fluorouracil]
[1]
  Kd: 498 ± 13.5 µM
[2]
  Kd: 55.9 ± 0.7 µM

— publication PMC10573954, “Crystal Structure of DNA Replication Protein SsbA Complexed with the Anticancer Drug 5-Fluorouracil” (International Journal of Molecular Sciences, 2023)
